According to patent US6653346B1, “Cytoprotective benzofuran derivatives” (Galileo Pharmaceuticals, Inc., priority 2002, dated 2003):

System: CRP in Hep3B cells
Assay: Human Hep3B cells - CRP assay (CRP ELISA)
Type: cell-based
Settings: 72 h, Hep3B cells stimulated with IL-1β, IL-6 and dexamethasone, three days, read-out: EC50 for reducing CRP levels
From the text: Hep3B Cell Line is obtained from the American Type Culture Collection (ATCC Catalog No. HB-8064). The Hep3B cell line was derived from liver tissue of […]. The cells are epithelial in morphology and produce tumors in nude mice. The cells produce α-fetoprotein, hepatitis B surface antigen, albumin, α-2-macroglobulin, α-1-antitrypsin, transferrin, plasminogen, complement C3 and β-lipoprotein (Knowles BB, et al., Science, 1980, 209:497-499). This cell line has been widely used to study hepatocyte cytokine and acute phase protein release (e.g., Damtew B, et al.,1993, J Immunol 150:4001-4007).
HEP3B cells are grown in Minimum Essential Medium (MEM; GIBCO) supplemented with 10% Fetal Bovine Serum (FBS; Hyclone), 1×Penicillin/Streptomycin (GIBCO, Cat #15140-122) and 0.1 mM non-essential amino acids (GIBCO, Catalog No. 11140-050). Cells are thawed and transferred to warm medium according to standard methods known in the art.
Cells are incubated in flasks at 37° C. with 5% CO2 in an air atmosphere incubator. HEP3B growth media is changed every 2 days until the cells reach 70-80% confluence (approx. 3-4 days). For assay, the cells are transferred to 96-well plates, seeded at 5000 cells per well in culture media, and left to grow for 7 days in a 37° C. incubator (air supplemented with 5% CO2). Media is replaced daily until assay. Test compounds are diluted into “Stimulus Buffer” (MEM medium containing 0.1 mM non-essential amino acids, 1×penicillin/streptomycin, 10% FBS with 10 ng/ml IL-1β, 20 ng/ml IL-6 and 1 μM dexamethasone. Media is removed from the cells and is replaced with 200 μl of test dilution. Cells are returned to the incubator for three days at 37° C. CRP ELISA is then performed on supernatant from the cells, as described below.
Costar EIA/RIA plates are coated with rabbit anti-human CRP (DAKO) diluted 1:4000 in carbonate buffer (100 μl/well) for 45 minutes at 37° C. Plates are then washed 5×with CRP washing buffer (50 mM Tris-HCl, 0.3M NaCl, […], pH 8.0) using an automatic plate washer. Plates may be dried, covered and refrigerated until use. Supernatant (100 μl) is removed from each well of the test plates and added to the corresponding well of a precoated ELISA plate.
100 μl HRP-conjugated rabbit anti-human CRP (DAKO) diluted 1:500 (in CRP wash buffer) is added to each well, followed by incubation for 30 minutes at 37° C. Plates are washed 5× with CRP washing buffer using the automatic plate washer. 200 μl of 3,3′,5,5′-Tetramethyl Benzidine (TMB) liquid Substrate System (Sigma, St. Louis, Mo.) is added to each well, followed by incubation in the dark for 15 minutes at room temperature. Finally, 50 μl of 1 M H2SO4 is added to each well and absorbance at 450 nm is immediately measured in a microtiter spectrophotometer.
CRP measured as above is normalized to cell count per well, using a cell viability assay, such as the Cell Tracker Green assay. To do this, the remainder of the medium is from the cell test plates, cells are washed with 200 μl of pre-warmed 1×Hanks Basic Salt Solution (HBSS; GIBCO), and 100 μL of 5 μM Cell Tracker Green (Molecular Probes, Eugene, Oreg.) is added to each well. Plates are then incubated at 37° C. for 30 minutes. Cells are then washed twice with prewarmed 1×HBSS. Plates are immediately read using a Fluoroskan® flourometer with a 485 excitation/538 emission filter pair.

Structure (SMILES) | EC50
Cc1c(C)c2occ(-c3ccccc3)c2c2c(-c3ccccc3)coc12 [4,5-Dimethyl-1,8-diphenyl-benzo[1,2-b;4,3-b′]difuran] | 10 to 40 µM
Cc1c(O)cc2cc(C(=O)CN3CCOCC3)oc2c1C [1-(5-Hydroxy-6,7-dimethyl-benzofuran-2-yl)-2-morpholin-4-yl-ethanone] | 10 to 40 µM
CC(=O)c1oc2c(C)c(C)c(O)cc2c1Br [1-(3-Bromo-5-hydroxy-6,7-dimethyl-benzofuran-2-yl)-ethanone] | 10 to 40 µM
Cc1c(O)cc2cc(C3(O)CN(C)CCO3)oc2c1C (stereo not shown) [2-(5-Hydroxy-6,7-dimethyl-benzofuran-2-yl)-4-methyl-morpholin-2-ol] | 10 to 40 µM

Results, then the compound that gave them:

EC50 | Structure (SMILES)
10 to 40 µM | COc1ccc(-c2coc3c(C)c(C)c(O)cc23)cc1 [3-(4-Methoxy-phenyl)-6,7-dimethyl-benzofuran-5-ol]
10 to 40 µM | Cc1c(O)cc2c(-c3ccccc3)coc2c1C [6,7-Dimethyl-3-phenyl-benzofuran-5-ol]
10 to 40 µM | CC(=O)c1cc2cc(O)c(C)c(C)c2o1 [1-(5-Hydroxy-6,7-dimethyl-benzofuran-2-yl)ethanone]
